Experimental data: the supplement of paper PMC10307832

What was measured:
Experiment in all cases: relative viability (nuclei count vs DMSO), 5 days (fraction); higher = more cells survive
NCI-H1944 = tested on: NCI-H1944
Outline: (§1)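 Relative viability divides the nuclei count in treated wells by that in vehicle wells. Lung cancer cell lines were seeded in 1536-well plates, dosed by pin tool the next day, and fixed and stained after 5 days in one step with final 0.05% Triton X-100, 1% formaldehyde and 1 ug/ml Hoechst. Dosing was a single drug or a fixed anchor-drug dose plus five library-drug doses (not always all listed) in √10 steps, and values are medians of duplicate plates imaged at 4×.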

UMC-11 = tested on: UMC-11
Outline: as §1

LXF-289 = tested on: LXF-289
Outline: as §1

LC-2-ad = tested on: LC-2-ad
Outline: as §1

COR-L 105 = tested on: COR-L 105
Outline: as §1

NCI-H2170 = tested on: NCI-H2170
Outline: as §1

HCC-78 = tested on: HCC-78
Outline: as §1

A-427 = tested on: A-427
Outline: as §1

HCC-366 = tested on: HCC-366
Outline: as §1

HOP-62 = tested on: HOP-62
Outline: as §1

NCI-H2009 = tested on: NCI-H2009
Outline: as §1

LU99A = tested on: LU99A
Outline: as §1

NCI-H1915 = tested on: NCI-H1915
Outline: as §1

EPLC-272H = tested on: EPLC-272H
Outline: as §1

NCI-H1666 = tested on: NCI-H1666
Outline: as §1

NCI-H1793 = tested on: NCI-H1793
Outline: as §1

NCI-H2085 = tested on: NCI-H2085
Outline: as §1

NCI-H460 = tested on: NCI-H460
Outline: as §1

SK-LU-1 = tested on: SK-LU-1
Outline: as §1

NCI-H1792 = tested on: NCI-H1792
Outline: as §1

Work on `COc1cc2nccc(Oc3ccc(NC(=O)Nc4cc(C)on4)c(Cl)c3)c2cc1OC` [Tivozanib] + CC1(C)CCC(c2ccc(Cl)cc2)=C(CN2CCN(c3ccc(C(=O)NS(=O)(=O)c4ccc(N[C@H](CCN5CCOCC5)CSc5ccccc5)c(S(=O)(=O)C(F)(F)F)c4)cc3)CC2)C1 [Navitoclax] (partner 0.5 µM) yielded a relative viability (NCI-H1944; first compound 0.005 µM) of 1.08, a relative viability (NCI-H1944; first compound 0.01581 µM) of 1.02 and a relative viability (NCI-H1944; first compound 0.05 µM) of 1.05. The relative viability (NCI-H1944; first compound 0.1581 µM) was 0.891, the relative viability (NCI-H1944; first compound 0.5 µM) was 1.1 and the relative viability (UMC-11; first compound 0.005 µM) was 0.314. For the same compound, the relative viability (UMC-11; first compound 0.01581 µM) was 0.322, the relative viability (UMC-11; first compound 0.05 µM) was 0.306 and the relative viability (UMC-11; first compound 0.5 µM) was 0.329. For the same compound, the relative viability (LXF-289; first compound 0.005 µM) was 0.916, the relative viability (LXF-289; first compound 0.01581 µM) was 0.942 and the relative viability (LXF-289; first compound 0.05 µM) was 0.915. It also gave a relative viability (LXF-289; first compound 0.1581 µM) of 1.01, a relative viability (LXF-289; first compound 0.5 µM) of 0.926 and a relative viability (LC-2-ad; first compound 0.005 µM) of 0.35. The relative viability (LC-2-ad; first compound 0.01581 µM) was 0.48, the relative viability (LC-2-ad; first compound 0.05 µM) was 0.535 and the relative viability (LC-2-ad; first compound 0.1581 µM) was 0.448. The relative viability (LC-2-ad; first compound 0.5 µM) was 0.427, the relative viability (COR-L 105; first compound 0.01581 µM) was 0.835 and the relative viability (COR-L 105; first compound 0.05 µM) was 0.829. For the same compound, the relative viability (COR-L 105; first compound 0.1581 µM) was 1.17, the relative viability (COR-L 105; first compound 0.5 µM) was 0.743 and the relative viability (NCI-H2170; first compound 0.005 µM) was 0.537. For the same compound, the relative viability (NCI-H2170; first compound 0.01581 µM) was 0.568, the relative viability (NCI-H2170; first compound 0.05 µM) was 0.677 and the relative viability (NCI-H2170; first compound 0.5 µM) was 0.584. For the same compound, the relative viability (HCC-78; first compound 0.005 µM) was 0.656, the relative viability (HCC-78; first compound 0.01581 µM) was 0.808 and the relative viability (HCC-78; first compound 0.05 µM) was 0.765. For the same compound, the relative viability (HCC-78; first compound 0.1581 µM) was 0.756, the relative viability (HCC-78; first compound 0.5 µM) was 0.677 and the relative viability (A-427; first compound 0.005 µM) was 0.924. The relative viability (A-427; first compound 0.01581 µM) was 0.989, the relative viability (A-427; first compound 0.05 µM) was 0.988 and the relative viability (A-427; first compound 0.1581 µM) was 0.737. For the same compound, the relative viability (A-427; first compound 0.5 µM) was 1.03, the relative viability (HCC-366; first compound 0.005 µM) was 1.05 and the relative viability (HCC-366; first compound 0.01581 µM) was 1.05. It also gave a relative viability (HCC-366; first compound 0.05 µM) of 0.947, a relative viability (HCC-366; first compound 0.1581 µM) of 1.01 and a relative viability (HCC-366; first compound 0.5 µM) of 1.08. It also gave a relative viability (HOP-62; first compound 0.005 µM) of 0.996, a relative viability (HOP-62; first compound 0.01581 µM) of 1.08 and a relative viability (HOP-62; first compound 0.05 µM) of 1.07. The relative viability (HOP-62; first compound 0.1581 µM) was 1.12, the relative viability (HOP-62; first compound 0.5 µM) was 0.844 and the relative viability (NCI-H2009; first compound 0.005 µM) was 1.11. The relative viability (NCI-H2009; first compound 0.01581 µM) was 1.16, the relative viability (NCI-H2009; first compound 0.05 µM) was 1.19 and the relative viability (NCI-H2009; first compound 0.1581 µM) was 1.24. The relative viability (NCI-H2009; first compound 0.5 µM) was 1.14, the relative viability (LU99A; first compound 0.005 µM) was 0.795 and the relative viability (LU99A; first compound 0.01581 µM) was 0.749. The relative viability (LU99A; first compound 0.05 µM) was 0.849, the relative viability (LU99A; first compound 0.5 µM) was 0.794 and the relative viability (NCI-H1915; first compound 0.005 µM) was 0.756. For the same compound, the relative viability (NCI-H1915; first compound 0.01581 µM) was 0.765, the relative viability (NCI-H1915; first compound 0.05 µM) was 0.806 and the relative viability (NCI-H1915; first compound 0.1581 µM) was 0.838. For the same compound, the relative viability (NCI-H1915; first compound 0.5 µM) was 0.771, the relative viability (EPLC-272H; first compound 0.005 µM) was 0.916 and the relative viability (EPLC-272H; first compound 0.01581 µM) was 1.25. The relative viability (EPLC-272H; first compound 0.05 µM) was 1.34, the relative viability (EPLC-272H; first compound 0.1581 µM) was 0.967 and the relative viability (EPLC-272H; first compound 0.5 µM) was 0.911. It also gave a relative viability (NCI-H1666; first compound 0.005 µM) of 0.993, a relative viability (NCI-H1666; first compound 0.01581 µM) of 0.96 and a relative viability (NCI-H1666; first compound 0.05 µM) of 1.02. For the same compound, the relative viability (NCI-H1666; first compound 0.1581 µM) was 0.891, the relative viability (NCI-H1666; first compound 0.5 µM) was 0.867 and the relative viability (NCI-H1793; first compound 0.005 µM) was 0.351. For the same compound, the relative viability (NCI-H1793; first compound 0.01581 µM) was 0.466, the relative viability (NCI-H1793; first compound 0.05 µM) was 0.413 and the relative viability (NCI-H1793; first compound 0.5 µM) was 0.438. For the same compound, the relative viability (NCI-H2085; first compound 0.005 µM) was 1.07, the relative viability (NCI-H2085; first compound 0.01581 µM) was 1.1 and the relative viability (NCI-H2085; first compound 0.05 µM) was 1.17. It also gave a relative viability (NCI-H2085; first compound 0.1581 µM) of 1.04, a relative viability (NCI-H2085; first compound 0.5 µM) of 1.14 and a relative viability (NCI-H460; first compound 0.005 µM) of 1.09. The relative viability (NCI-H460; first compound 0.01581 µM) was 1.24, the relative viability (NCI-H460; first compound 0.05 µM) was 1.13 and the relative viability (NCI-H460; first compound 0.1581 µM) was 1.17. For the same compound, the relative viability (NCI-H460; first compound 0.5 µM) was 1.1, the relative viability (SK-LU-1; first compound 0.005 µM) was 0.837 and the relative viability (SK-LU-1; first compound 0.01581 µM) was 0.862. It also gave a relative viability (SK-LU-1; first compound 0.05 µM) of 1.1, a relative viability (SK-LU-1; first compound 0.1581 µM) of 0.666 and a relative viability (SK-LU-1; first compound 0.5 µM) of 0.806. The relative viability (NCI-H1792; first compound 0.005 µM) was 0.657, the relative viability (NCI-H1792; first compound 0.01581 µM) was 0.638 and the relative viability (NCI-H1792; first compound 0.05 µM) was 0.657. For the same compound, the relative viability (NCI-H1792; first compound 0.1581 µM) was 0.505 and the relative viability (NCI-H1792; first compound 0.5 µM) was 0.849.
